From US20230017045A1, “PYRIDINE AND PYRIMIDINE CARBOXYLATE HERBICIDES AND METHODS OF USE THEREOF” (Dow AgroSciences LLC, priority 2017, published 2023) come the findings set out here.

Read-outs that look alike come from different tables or passages of the source.

The experiment has as its system test plant species. As to the kind of experiment: Post-emergent herbicidal activity test (greenhouse, foliar spray, visual growth reduction). It is filed as in vivo. Conditions: post-emergence, 336 h, 140 g ai/ha, 14 days after application. In short, it runs like this:
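Visual percent injury (0-100) rated 14 d after treatment, relative to nontreated and solvent-blank plants. Test plants at first or second true leaf stage received an overhead track-sprayer application at 187 L/ha. Compounds were formulated in aqueous acetone/DMSO carrier containing crop oil concentrate and X-77 surfactant.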

Setting [1] is: ALOMY: blackgrass (Alopecurus myosuroides), read-out: Visual Growth Reduction (%) 14 Days After Application, ALOMY.
Where [2] appears, read: AMARE: redroot pigweed (Amaranthus retroflexus), read-out: Visual Growth Reduction (%) 14 Days After Application, AMARE.
[3] abbreviates: AVEFA: wild oat (Avena fatua), read-out: Visual Growth Reduction (%) 14 Days After Application, AVEFA.
Where [4] appears, read: CHEAL: lambsquarters (Chenopodium album), read-out: Visual Growth Reduction (%) 14 Days After Application, CHEAL.
[5] abbreviates: CIRAR: canada thistle (Cirsium arvense), read-out: Visual Growth Reduction (%) 14 Days After Application, CIRAR.
[6] abbreviates: CYPES: yellow nutsedge (Cyperus esculentus), read-out: Visual Growth Reduction (%) 14 Days After Application, CYPES.
Setting [7] is: DIGSA: crabgrass (Digitaria sanguinalis), read-out: Visual Growth Reduction (%) 14 Days After Application, DIGSA.
[8] abbreviates: ECHCG: barnyardgrass (Echinochloa crus-galli), read-out: Visual Growth Reduction (%) 14 Days After Application, ECHCG.
The mark [9] stands for this setting: IPOHE: ivy-leaf morning glory (Ipomoea hederacea), read-out: Visual Growth Reduction (%) 14 Days After Application, IPOHE.
Where [10] appears, read: KCHSC: kochia (Bassia scoparia), read-out: Visual Growth Reduction (%) 14 Days After Application, KCHSC.
Where [11] appears, read: ORYSA: rice (Oryza sativa), read-out: Visual Growth Reduction (%) 14 Days After Application, ORYSA.
Where [12] appears, read: SETFA: giant foxtail (Setaria faberi), read-out: Visual Growth Reduction (%) 14 Days After Application, SETFA.
Where [13] appears, read: SORVU: grain sorghum (Sorghum vulgare), read-out: Visual Growth Reduction (%) 14 Days After Application, SORVU.
Where [14] appears, read: STEME: common chickweed (Stellaria media), read-out: Visual Growth Reduction (%) 14 Days After Application, STEME.
[15] abbreviates: TRZAS: wheat, spring (Triticum aestivum), read-out: Visual Growth Reduction (%) 14 Days After Application, TRZAS.

Turning to `O=C(O)c1nc(-c2c(Cl)cc(C(F)(F)F)cc2Cl)ccc1Cl` [F156, 3-Chloro-6-(2,6-dichloro-4-(trifluoromethyl)phenyl)picolinic acid], the pest or weed control at 140 g/ha reads like this: under setting [1], 45 to 59%; under setting [2], 95 to 100%; under setting [3], 0 to 29%; under setting [4], 85 to 94%; under setting [5], 75 to 84%; under setting [6], 0 to 29%. The pest or weed control at 140 g/ha was 85 to 94% under setting [7]; 75 to 84% under setting [8]; 95 to 100% under setting [9]; 85 to 94% under setting [10]; 45 to 59% under setting [11]; 95 to 100% under setting [12]. For the same compound, the pest or weed control at 140 g/ha lay within 75 to 84% under setting [13], 0 to 29% under setting [14] and 60 to 74% under setting [15].

Turning to `COC(=O)c1nc(-c2ccc(OC(F)F)cc2Cl)ccc1Cl` [F157, methyl 3-chloro-6-(2-chloro-4-(difluoromethoxy)phenyl)picolinate], the pest or weed control at 140 g/ha is, setting by setting: under setting [1], 0 to 29%; under setting [2], 95 to 100%; under setting [3], 45 to 59%; under setting [4], 85 to 94%; under setting [5], 85 to 94%; under setting [6], 0 to 29%. Further, the pest or weed control at 140 g/ha fell in the range of 85 to 94% under setting [7]; 85 to 94% under setting [8]; 95 to 100% under setting [9]; 85 to 94% under setting [10]; 0 to 29% under setting [11]; 85 to 94% under setting [12]. Further, the pest or weed control at 140 g/ha reads like this: under setting [13], 95 to 100%; under setting [14], 0 to 29%; under setting [15], 60 to 74%.

Consider `COC(=O)c1nc(-c2ccc(C(F)(F)F)cc2F)c(F)cc1Cl` [F158, methyl 3-chloro-5-fluoro-6-(2-fluoro-4-(trifluoromethyl)phenyl)picolinate], for which the pest or weed control at 140 g/ha under setting [1] was 0 to 29%; the pest or weed control at 140 g/ha under setting [2] is 95 to 100%; the pest or weed control at 140 g/ha under setting [3] was in the range of 30 to 44%; the pest or weed control at 140 g/ha under setting [4] was 95 to 100%; the pest or weed control at 140 g/ha under setting [5] is 85 to 94%; the pest or weed control at 140 g/ha under setting [6] was in the range of 0 to 29%. Moreover, the pest or weed control at 140 g/ha is, setting by setting: under setting [7], 85 to 94%; under setting [8], 45 to 59%; under setting [9], 95 to 100%; under setting [10], 60 to 74%; under setting [11], 0 to 29%; under setting [12], 75 to 84%. The pest or weed control at 140 g/ha is, setting by setting: under setting [13], 75 to 84%; under setting [14], 0 to 29%; under setting [15], 60 to 74%.

As to `COC(=O)c1nc(-c2ccc(OS(C)(=O)=O)cc2)c(F)cc1Cl` [F159, Methyl 3-chloro-5-fluoro-6-(4-((methylsulfonyl)oxy)phenyl)picolinate], the pest or weed control at 140 g/ha by setting is: under setting [1], 0 to 29%; under setting [2], 60 to 74%; under setting [3], 0 to 29%; under setting [4], 45 to 59%; under setting [5], 30 to 44%; under setting [6], 0 to 29%. Also, the pest or weed control at 140 g/ha is, setting by setting: under setting [7], 60 to 74%; under setting [8], 30 to 44%; under setting [9], 45 to 59%; under setting [10], 0 to 29%; under setting [11], 0 to 29%; under setting [12], 60 to 74%. For the same compound, the pest or weed control at 140 g/ha is, setting by setting: under setting [13], 30 to 44%; under setting [14], 0 to 29%; under setting [15], 0 to 29%.

For `O=C(O)c1nc(-c2ccc(C(F)(F)F)cc2F)c(F)cc1Cl` [F160, 3-Chloro-5-fluoro-6-(2-fluoro-4-(trifluoromethyl)phenyl) picolinic acid], the pest or weed control at 140 g/ha lay in the range of 75 to 84% under setting [1]; 95 to 100% under setting [2]; 85 to 94% under setting [3]; 95 to 100% under setting [4]; 85 to 94% under setting [5]; 60 to 74% under setting [6]. Further, the pest or weed control at 140 g/ha by setting is: under setting [7], 85 to 94%; under setting [8], 95 to 100%; under setting [9], 95 to 100%; under setting [10], 95 to 100%; under setting [11], 60 to 74%; under setting [12], 85 to 94%. In addition, the pest or weed control at 140 g/ha reads like this: under setting [13], 95 to 100%; under setting [14], 30 to 44%; under setting [15], 85 to 94%.

With `COC(=O)c1nc(-c2ccc(OC(F)F)cc2OC)c(F)cc1Cl` [F161 (F393)], the pest or weed control at 140 g/ha was 0 to 29% under setting [1]; 95 to 100% under setting [2]; 75 to 84% under setting [3]; 85 to 94% under setting [4]; 85 to 94% under setting [5]; 0 to 29% under setting [6]. The pest or weed control at 140 g/ha under setting [7] fell in the range of 45 to 59%.

Take `COC(=O)c1nc(-c2ccc(OC(F)F)cc2OC)c(F)cc1Cl` [F161, Methyl 3-chloro-6-4-(difluoromethoxy)-2-methoxyphenyl)-5-fluoropicolinate]: the pest or weed control at 140 g/ha by setting is: under setting [8], 85 to 94%; under setting [9], 95 to 100%; under setting [10], 85 to 94%; under setting [11], 0 to 29%; under setting [12], 85 to 94%; under setting [13], 95 to 100%. Besides, the pest or weed control at 140 g/ha reads like this: under setting [14], 30 to 44%; under setting [15], 60 to 74%.

Regarding `N#Cc1cc(C(F)(F)F)cc(Cl)c1-c1ccc(Cl)c(C(=O)O)n1` [F162, 3-Chloro-6-(2-chloro-6-cyano-4-(trifluoromethyl)phenyl)picolinic acid], the pest or weed control at 140 g/ha fell in the range of 0 to 29% under setting [1]; 95 to 100% under setting [2]; 30 to 44% under setting [3]; 95 to 100% under setting [4]; 85 to 94% under setting [5]; 0 to 29% under setting [6]. In addition, the pest or weed control at 140 g/ha runs as follows: under setting [7], 75 to 84%; under setting [8], 95 to 100%; under setting [9], 95 to 100%; under setting [10], 95 to 100%; under setting [11], 0 to 29%; under setting [12], 85 to 94%. Further, the pest or weed control at 140 g/ha is, setting by setting: under setting [13], 60 to 74%; under setting [14], 0 to 29%; under setting [15], 45 to 59%.

Regarding `COC(=O)c1nc(-c2ccc(OCC(F)(F)F)cc2)c(F)cc1Cl` [F163, Methyl 3-chloro-5-fluoro-6-(4-(2,2,2-trifluoroethoxy)phenyl) picolinate], the pest or weed control at 140 g/ha runs as follows: under setting [1], 0 to 29%; under setting [2], 30 to 44%; under setting [3], 0 to 29%; under setting [4], 45 to 59%; under setting [5], 0 to 29%; under setting [6], 0 to 29%. Besides, the pest or weed control at 140 g/ha was 0 to 29% under setting [7]; 0 to 29% under setting [8]; 45 to 59% under setting [9]; 0 to 29% under setting [10]; 0 to 29% under setting [11]; 0 to 29% under setting [12]. The pest or weed control at 140 g/ha under setting [13] lay in the range of 0 to 29%, the pest or weed control at 140 g/ha under setting [14] was in the range of 0 to 29% and the pest or weed control at 140 g/ha under setting [15] lay within 0 to 29%.
